From patent USRE38723E1, “Haloalkyl derivatives of reporter molecules used to analyze metabolic activity in cells” (Molecular Probes, Inc., priority 1991, dated 2005) come the findings set out here.

Each structure is given as a SMILES string.

As usually defined, the melting point is the temperature, or range, at which the solid turns liquid.

For data set [1], the system named is CRE-BAG2 cells expressing β-galactosidase. The data set is described as follows: Cellular retention of coumarin galactopyranoside substrates (Example 17). In kind it is cell-based. The conditions noted are these: 10 μM, hypotonic shock loading, 37° C., excitation 360±20 nm, emission >400 nm. As to the method:
CRE-BAG2 cells are prepared as described in Example 15.
Staining solutions of 4-methylcoumarin β-D-galactopyranoside, 4-chloromethylcoumarin β-D-galactopyranoside and 4-trifluoromethylcoumarin β-D-galactopyranoside, respectively, are prepared that are 10 μM in concentration. Each galactopyranoside substrate is loaded into CRE-BAG2 cells expressing β-galactosidase using brief hypotonic shock for less than five minutes. Cells are then washed free of extracellular substrate and incubated for three hours in fresh culture medium at 37° C. Each cell sample is then illuminated at 360±20 nm, and the fluorescence is observed at >400 nm. Fluorescence intensity data is acquired using a cooled CCD camera and subsequently stored in digital format.

Data set [2] concerns Glutathione Transferase from Equine Liver. The data set is described as follows: Glutathione transferase activity in vitro (Example 14). In kind it is biochemical. As to conditions: room temperature, with GSH. As to the method: Activity of glutathione transferase in vitro can be assayed essentially by the method of Grants and Matsumura (INSECT PHYSIOL. 18 (6), 615 (1988)). • 1) Reagents: The stock reagents required are: 1) 5-Chloromethylfluorescein (CMF) substrate (Example 1) 10 mg/mL in DMF, diluted 1:10 in reaction buffer to 1 mg/mL; 2). Reaction buffer 100 mM potassium phosphate, 15% glycerol pH 6.8; 3). Glutathione (GSH) 155 mM in 20 mM TRIS, 2 mM DTT, 15% glycerol pH 7.8; 4). Glutathione Transferase from Equine Liver (Sigma #G 6511) 1.0 mg/mL in reaction buffer. • 2) Assay. The reaction mixture consists of 0.7 mL reaction buffer, 0.1 mL GSH, 0.1 mL substrate and 0.1 mL enzyme. The background is measured and subtracted by using 0.1 mL of the reaction buffer instead of the enzyme. Enzymatic activity can be detected at less than 5 minutes at room temperature. Product formation can be detected by separation of the polar product from the less polar substrate by a suitable means such as thin layer chromatography or high performance liquid chromatography. For instance, product accumulation can be detected by thin layer chromatography using A) 15:85 methanol:chloroform or B) 2:5:15 NH4OH:isopropyl alcohol:methanol. […] Alternatively the fluorescence of the product is determined using a fluorometer versus a fluorescein standard with excitation at 492 and emission measured at 515 nm. […]

The test system of data set [3] is lacZ positive CRE BAG 2 cells. The data set is described as follows: Staining of living lacZ positive cells with galactosidase substrate (Example 11). In kind it is cell-based. The procedure: (§1) NIH/3T3 cells (lacZ negative) and CRE BAG 2 cells (3T3 cells transformed with a retrovirus containing lacZ gene) are employed for cellular assays. Both cell lines can be obtained from American Type Culture Collection Co., Rockville, Md. The cells are grown in a humidified atmosphere of 5% CO2 in Dulbecco's modified Eagle's medium supplemented with 10% calf serum, 50 μg/mL gentamicin, 300 μg/mL L-glutamine and 10 mM HEPES pH 7.4.
(§2) 4-Chloromethylumbelliferyl β-D-galactoside (Cl-MUG) (Example 3) is dissolved in DMSO to get a 10 mM stock solution. A 10 mM stock solution of 4-methylumbelliferyl β-D-galactoside (MUG) (Molecular Probes) is also made in DMSO as a control. The stock solutions are kept sealed in brown reagent bottles and stored at −20° C.
(§3) 100 μL of stock solution is added to 10 mL of fresh culture medium to prepare a “working medium” containing 100 μM Cl-MUG. This medium is filter-sterilized by passing through an Acrodisc™ filter (0.45 μm pore size). A working medium containing MUG is prepared in the same way.
(§4) Cells grown on coverslips are transferred to the working medium and incubated at 37° C. under normal conditions. Cells are examined at the desired time for their fluorescence under a Zeiss microscope equipped with a Hoechst filter set (EX […]/EM 480 nm). […] After 6 hours continuous incubation, the fluorescence intensity of stained CRE BAG 2 cells reaches its highest level.

Data set [4] deals with NIH/3T3 cells and CRE BAG 2 cells. The data set is described as follows: Cytotoxicity of substrate in working medium (Example 11). In kind it is cell-based. The procedure:
as §1, §3
Fluorescence can be detected in the cells for at least 24 hours following washing of the cells with fresh medium.

Data set [5] relates to NIH/3T3 cells (lacZ negative). The data set is described as follows: Staining of living lacZ negative cells with galactosidase substrate (Example 11). In kind it is cell-based. As to conditions: 100 μM in working medium, 60 minutes at 37° C., washed with fresh medium. The procedure:
as §1, §2, §3, §4

The next data set has as its system lacZ positive cells. The data set is described as follows: Dye retention after paraformaldehyde fixation (Example 11). As to conditions: 3.7% paraformaldehyde fixation, Hoechst filter set. In kind it is cell-based. As to the method:
The cells grown on coverslips and incubated with either Cl-MUG or MUG are immersed in 3.7% paraformaldehyde in 80 mM Pipes buffer, pH 6.5 for 4 minutes to allow the paraformaldehyde to penetrate the cells. The cells are then transferred to 3.7% paraformaldehyde in PBS. After 6 minutes, the cells are washed three times with PBS buffer for ten minutes. The coverslips are put on the slides and sealed.
The fixed cells are examined for their fluorescence under a Zeiss microscope equipped with a Hoechst filter set.

Data set [6] concerns lacZ positive CRE BAG 2 cells. The data set is described as follows: Cellular retention after loading by hypoosmotic shock (Example 12). The format is cell-based. As to conditions: after incubation for 4 hours, 2 mM. The procedure: 5-Chloromethylfluorescein di-β-D-galactoside (CMFDG) (Example 1) is dissolved in DMSO to get 20 mM stock solution. A 40 mM stock solution offluorescein di-β-D-galaetoside (FDG) (Molecular Probes) is also made in DMSO as a control. The stock solutions are kept sealed in brown reagent bottles and stored at −20° C.
• (A) FCS-PBS Solution: Phosphate buffered saline (GIBCO), 4% fetal calf serum, 10 mM HEPES, pH 7.2 • (B) Staining Solution: CMFDG: 200 μL of stock solution is diluted with distilled water to 4 mL to get a 1 mM staining solution. FDG: 400 μL of stock solution is diluted to 4 mL with distilled water to get a 4 mM staining solution. 4. Staining and Examination of Cells:
Cells grown on coverslips are transferred to a Petri dish containing 3 mL of FCS-PBS solution and then incubated at 37° C. for 10 minutes. 3 mL of prewarmed (37° C.) 1 mM CMFDG staining solution is added to give a final dye concentration of 0.5 mM The solutions are mixed rapidly. The cells are incubated at 37° C. for exactly one minute. To stop the loading, the cells are transferred to a 1.8 mL of ice-cold FCS-PBS solution. FDG is loaded into cells by using the same procedure except that the final dye concentrations is 2 mM. Cells are then incubated under normal culture conditions to examine the dye retention. Cells are examined without washing at the desired time for their fluorescence under a Zeiss microscope equipped with a FITC filter set (EX 485 nm/EM 530 nm).

In a further data set the test system is NIH/3T3 cells. The data set is described as follows: Cellular retention of rhodamine 110 peptidase substrates (Example 16). The format is cell-based. As to conditions: 25 μM; for leakage of enzyme reaction product after staining: 30 minutes at 37° C.; for fluorescence after washing and several hours in fresh media: fluorescein long-pass filter set. As to the method: NIH/3T3 cells are prepared as described in Example 15.
Staining solutions of bis-(L-leucine)-rhodamine 110 and L-leucine-rhodamine 110-p-chloromethylbenzamide (Example 9), respectively, are prepared that are 25 μM in concentration. Equivalent NIH/3T3 cells are incubated with the same amount of peptidase substrate for thirty (30) minutes at 37° C. in Modified Tyrode's buffered saline (135 mM NaCl, 5 mM KCl, 1 mM MgCl2, 1.8 mM CaCl2, 10 mM NaHEPES, 5.6 mM glucose, pH 7.5, plus 0.1% bovine serum albumin).
The cells are washed and placed in fresh media for several hours.

Where [7] appears, read: 100 μM working medium for 24 hours.

For the compound `O=c1cc(C(F)(F)F)c2ccc(O[C@@H]3O[C@H](CO)[C@H](O)[C@H](O)[C@H]3O)cc2o1` [4-trifluoromethylcoumarin β-D-galactopyranoside], the “fluorescence intensity after three hours in fresh culture medium” value (from here on “fluorescence intensity after three hours”) in [1] was “low fluorescent intensity”.

For `O=C1OC2(c3ccc(O)cc3Oc3cc(O)ccc32)c2ccc(CCl)cc21` [CMF, 5-chloromethylfluorescein], the “time at which enzymatic activity can be detected” value in [2] is on record as “less than 5 minutes”.

In the case of `O=c1cc(CCl)c2ccc(O[C@@H]3O[C@H](CO)[C@H](O)[C@H](O)[C@H]3O)cc2o1` [Cl-MUG, 7-(β-D-galactopyranosyloxy)-4-chloromethylcoumarin], in data set [3] (100 μM in working medium, 60 minutes at 37° C., washed with fresh medium), the “fluorescence of cells under microscope” value is “fluorescence is observed in the cytoplasmic area”. The “continuous incubation time at which fluorescence intensity reaches its highest level” value in data set [3] (100 μM working medium) turned out to be 6 h. For the same compound, in data set [4] (setting [7]), the cell morphology entry is “morphologically normal” and the “population doubling time versus cells in substrate-free medium” value is reported as “same population doubling time”. Also, the “time fluorescence can be detected in the cells following washing with fresh medium” value in data set [4] (after incubation in working medium) is “at least 24 hours”. For the same compound, the cytotoxicity result in data set [4] (either type of cell) is given as “no cytotoxicity”. Further, the subculture after preincubation entry in [4] (preincubated in working medium for 6 hours, subcultured in fresh medium) was “second generation of cells that is normal”. For the same compound, in data set [5], the “fluorescence of cells under microscope” value is listed as “not in 3T3 cells”. Moreover, the “fluorescence of fixed cells” value with lacZ positive cells is “still brightly fluorescent”. For the same compound, the “fluorescence intensity after three hours” value in [1] was “brightly fluorescent”.

As for `O=C1OC2(c3ccc(O[C@@H]4O[C@H](CO)[C@H](O)[C@H](O)[C@H]4O)cc3Oc3cc(O[C@@H]4O[C@H](CO)[C@H](O)[C@H](O)[C@H]4O)ccc32)c2ccccc21` [FDG, fluorescein di-β-D-galaetoside, reference compound], in data set [6], the “fluorescence of stained cells after 4 hours” value was “very dim with high background fluorescence in the medium”.

For `CC(C)CC(N)C(=O)Nc1ccc2c(c1)Oc1cc(NC(=O)c3ccc(CCl)cc3)ccc1C21OC(=O)c2ccccc21` [L-leucine-rhodamine 110-p-chloromethylbenzamide], the melting point is 275 °C (dec.). Moreover, in the data set with NIH/3T3 cells, the “leakage of enzyme reaction product after staining” value is “significantly less leakage”; the “fluorescence after washing and several hours in fresh media” value was “bright, well-defined staining pattern”.

`Cc1cc(=O)oc2cc(O[C@@H]3O[C@H](CO)[C@H](O)[C@H](O)[C@H]3O)ccc12` [MUG, 4-methylumbelliferyl β-D-galactoside, reference compound]: in the data set on lacZ positive cells, the “fluorescence of fixed cells” value is recorded as “barely fluorescent”. Also, the “fluorescence intensity after three hours” value in [1] is reported as “low fluorescent intensity”.

In the case of `CC(C)CC(N)C(=O)Nc1ccc2c(c1)Oc1cc(NC(=O)C(N)CC(C)C)ccc1C21OC(=O)c2ccccc21` [bis-(L-leucine)-rhodamine 110, reference compound], in the data set on NIH/3T3 cells, the “leakage of enzyme reaction product after staining” value was “substantial leakage”; the “fluorescence after washing and several hours in fresh media” value is listed as “no fluorescent signal”.
